Results as given in patent US11891365B2, “3-alkyl-4-amido-bicyclic [4,5,0] hydroxamic acids as HDAC inhibitors” (Valo Health, Inc., priority 2015, dated 2024).

Biological target: T1, Full length human recombinant HDAC6 protein (Homo sapiens, UniProt Q9UBN7)
T1 sequence (Q9UBN7 1-1215): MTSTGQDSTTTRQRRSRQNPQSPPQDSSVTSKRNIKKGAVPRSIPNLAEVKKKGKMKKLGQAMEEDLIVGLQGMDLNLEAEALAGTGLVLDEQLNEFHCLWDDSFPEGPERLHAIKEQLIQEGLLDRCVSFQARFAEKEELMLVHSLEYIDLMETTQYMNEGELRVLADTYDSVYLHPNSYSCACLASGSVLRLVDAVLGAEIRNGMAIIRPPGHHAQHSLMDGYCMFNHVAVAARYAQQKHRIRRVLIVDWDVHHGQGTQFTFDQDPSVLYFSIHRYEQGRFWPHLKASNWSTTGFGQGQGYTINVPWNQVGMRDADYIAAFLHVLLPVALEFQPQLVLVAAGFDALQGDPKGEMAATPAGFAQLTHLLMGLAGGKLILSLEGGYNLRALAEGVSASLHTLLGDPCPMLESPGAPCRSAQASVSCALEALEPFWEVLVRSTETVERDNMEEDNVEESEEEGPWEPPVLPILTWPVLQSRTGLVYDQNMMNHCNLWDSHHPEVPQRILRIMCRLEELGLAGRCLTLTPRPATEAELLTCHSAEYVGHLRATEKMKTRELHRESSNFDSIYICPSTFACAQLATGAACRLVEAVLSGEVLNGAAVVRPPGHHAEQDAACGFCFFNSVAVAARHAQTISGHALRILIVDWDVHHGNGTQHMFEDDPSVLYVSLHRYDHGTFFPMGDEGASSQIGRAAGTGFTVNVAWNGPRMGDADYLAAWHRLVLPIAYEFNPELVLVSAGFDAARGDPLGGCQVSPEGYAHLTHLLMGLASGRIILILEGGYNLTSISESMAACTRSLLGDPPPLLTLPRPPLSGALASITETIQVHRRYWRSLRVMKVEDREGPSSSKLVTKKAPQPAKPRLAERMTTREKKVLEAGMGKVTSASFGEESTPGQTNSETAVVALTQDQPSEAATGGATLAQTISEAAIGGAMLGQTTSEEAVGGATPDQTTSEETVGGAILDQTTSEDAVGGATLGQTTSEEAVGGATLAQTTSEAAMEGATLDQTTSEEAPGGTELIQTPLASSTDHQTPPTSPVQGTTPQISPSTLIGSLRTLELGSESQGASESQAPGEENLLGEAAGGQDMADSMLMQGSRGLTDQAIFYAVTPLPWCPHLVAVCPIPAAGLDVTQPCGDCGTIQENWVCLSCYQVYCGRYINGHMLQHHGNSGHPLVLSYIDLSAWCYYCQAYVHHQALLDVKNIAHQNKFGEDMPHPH
Experiment: In vitro histone deacetylase assay: enzymatic HDAC6 electrophoretic mobility shift assay
Assay type: biochemical
Conditions: 1 nM enzyme, 2 μM peptide substrate RHKK(Ac)-NH2, 25° C., 12 concentrations; read-out: Inhibitory Concentration (IC50) Values against HDAC6, Activity Range

IC50 | Structure (SMILES)
100 to 500 nM | COC[C@H]1CN(C(=O)C2(C)CCC2)Cc2ccc(C(=O)NO)cc2O1 [(R)-N-hydroxy-2-(methoxymethyl)-4-(1-methylcyclobutane-1-carbonyl)-2,3,4,5-tetrahydrobenzo[f][1,4]oxazepine-8-carboxamide]
100 to 500 nM | CC(C)(C)OC(=O)N1CCC2(CC1)c1ccccc1OC2C(=O)N1CCOc2cc(C(=O)NO)ccc2C1 (centres unmarked) [tert-butyl 2-(8-(hydroxycarbamoyl)-2,3,4,5-tetrahydrobenzo[f][1,4]oxazepine-4-carbonyl)-2H-spiro[benzofuran-3,4′-piperidine]-1′-carboxylate]
100 to 500 nM | C[C@H]1COc2cc(C(=O)NO)ccc2CN1C(=O)[C@@]1(C)CCCCO1 [(S)-N-hydroxy-3-methyl-4-((R)-2-methyltetrahydro-2H-pyran-2-carbonyl)-2,3,4,5-tetrahydrobenzo[f][1,4]oxazepine-8-carboxamide]
100 to 500 nM | CC(C)(C)OC(=O)N1CCC2(CCCC2C(=O)N2CCOc3cc(C(=O)NO)ccc3C2)C1 (centres unmarked) [tert-butyl 6-(8-(hydroxycarbamoyl)-2,3,4,5-tetrahydrobenzo[f][1,4]oxazepine-4-carbonyl)-2-azaspiro[4.4]nonane-2-carboxylate]
≤ 100 nM | C[C@H]1COc2cc(C(=O)NO)ccc2CN1C(=O)[C@H]1CCCCO1 [(S)-N-hydroxy-3-methyl-4-((R)-tetrahydro-2H-pyran-2-carbonyl)-2,3,4,5-tetrahydrobenzo[f][1,4]oxazepine-8-carboxamide]
> 500 nM | O=C(NO)c1ccc2c(c1)OCCN(C(=O)Cc1ccccc1Oc1ccccc1)C2 [N-hydroxy-4-(2-(2-phenoxyphenyl)acetyl)-2,3,4,5-tetrahydrobenzo[f][1,4]oxazepine-8-carboxamide]
≤ 100 nM | O=C(NO)c1ccc2c(c1)OCC1(CC1)N(C(=O)C1CCOCC1)C2 [N-hydroxy-4-(tetrahydro-2H-pyran-4-carbonyl)-4,5-dihydro-2H-spiro[benzo[f][1,4]oxazepine-3,1′-cyclopropane]-8-carboxamide]
> 500 nM | O=C(NO)c1ccc2c(c1)OCCN(C(=O)C1CC13CCCNC3)C2 (centres unmarked) [N-hydroxy-4-(5-azaspiro[2.5]octane-1-carbonyl)-2,3,4,5-tetrahydrobenzo[f][1,4]oxazepine-8-carboxamide]
100 to 500 nM | CC(=O)N1Cc2ccc(C(=O)NO)cc2OC[C@@H]1C [(S)-4-acetyl-N-hydroxy-3-methyl-2,3,4,5-tetrahydrobenzo[f][1,4]oxazepine-8-carboxamide]
≤ 100 nM | COC[C@H]1COc2cc(C(=O)NO)ccc2CN1C(=O)C1CCOCC1 [(S)-N-hydroxy-3-(methoxymethyl)-4-(tetrahydro-2H-pyran-4-carbonyl)-2,3,4,5-tetrahydrobenzo[f][1,4]oxazepine-8-carboxamide]
≤ 100 nM | COc1ccc(OCC(=O)N2CCOc3cc(C(=O)NO)ccc3C2)cc1 [N-hydroxy-4-(2-(4-methoxyphenoxy)acetyl)-2,3,4,5-tetrahydrobenzo[f][1,4]oxazepine-8-carboxamide]
100 to 500 nM | C[C@H]1COc2cc(C(=O)NO)ccc2CN1C(=O)CCOC1CCOCC1 [(S)-N-hydroxy-3-methyl-4-(3-((tetrahydro-2H-pyran-4-yl)oxy)propanoyl)-2,3,4,5-tetrahydrobenzo[f][1,4]oxazepine-8-carboxamide]
≤ 100 nM | O=C(NO)c1ccc2c(c1)OCCN(C(=O)C1CCC3(CCNCC3)CC1)C2 [N-hydroxy-4-(3-azaspiro[5.5]undecane-9-carbonyl)-2,3,4,5-tetrahydrobenzo[f][1,4]oxazepine-8-carboxamide]
≤ 100 nM | O=C(NO)c1ccc2c(c1)OCCN(C(=O)C1(c3ccccn3)CC1)C2 [N-hydroxy-4-(1-(pyridin-2-yl)cyclopropane-1-carbonyl)-2,3,4,5-tetrahydrobenzo[f][1,4]oxazepine-8-carboxamide]
≤ 100 nM | C[C@H]1COc2cc(C(=O)NO)ccc2CN1C(=O)C1CC(OCc2ccccc2)C1 (stereo partly drawn) [(S)-4-(3-(benzyloxy)cyclobutane-1-carbonyl)-N-hydroxy-3-methyl-2,3,4,5-tetrahydrobenzo[f][1,4]oxazepine-8-carboxamide]
> 500 nM | O=C(NO)c1ccc2c(c1)OCCN(C(=O)CN1CCOCC1)C2 [N-hydroxy-4-(2-morpholinoacetyl)-2,3,4,5-tetrahydrobenzo[f][1,4]oxazepine-8-carboxamide]

IC50 | Structure (SMILES)
≤ 100 nM | C[C@H]1c2ccc(C(=O)NO)cc2OCCN1C(=O)C1(C)CCC1 [(S)-N-hydroxy-5-methyl-4-(1-methylcyclobutane-1-carbonyl)-2,3,4,5-tetrahydrobenzo[f][1,4]oxazepine-8-carboxamide]
> 500 nM | Cn1cc(C(=O)N2CCOc3cc(C(=O)NO)ccc3C2)ccc1=O [N-hydroxy-4-(1-methyl-6-oxo-1,6-dihydropyridine-3-carbonyl)-2,3,4,5-tetrahydrobenzo[f][1,4]oxazepine-8-carboxamide]
≤ 100 nM | C[C@H]1COc2cc(C(=O)NO)ccc2CN1C(=O)C(C)(C)CO [(S)-N-hydroxy-4-(3-hydroxy-2,2-dimethylpropanoyl)-3-methyl-2,3,4,5-tetrahydrobenzo[f][1,4]oxazepine-8-carboxamide]
100 to 500 nM | C[C@@H]1COc2cc(C(=O)NO)ccc2CN1C(=O)C1(C)CCC1 [(R)-N-hydroxy-3-methyl-4-(1-methylcyclobutane-1-carbonyl)-2,3,4,5-tetrahydrobenzo[f][1,4]oxazepine-8-carboxamide]
100 to 500 nM | COC[C@H]1CN(C(=O)C2CCOCC2)Cc2ccc(C(=O)NO)cc2O1 [(R)-N-hydroxy-2-(methoxymethyl)-4-(tetrahydro-2H-pyran-4-carbonyl)-2,3,4,5-tetrahydrobenzo[f][1,4]oxazepine-8-carboxamide]
≤ 100 nM | COCC1(C(=O)N2CCOc3cc(C(=O)NO)ccc3C2)CC1 [N-hydroxy-4-(1-(methoxymethyl)cyclopropane-1-carbonyl)-2,3,4,5-tetrahydrobenzo[f][1,4]oxazepine-8-carboxamide]
≤ 100 nM | C[C@H]1COc2cc(C(=O)NO)ccc2CN1C(=O)[C@@H]1CCCCO1 [(S)-N-hydroxy-3-methyl-4-((S)-tetrahydro-2H-pyran-2-carbonyl)-2,3,4,5-tetrahydrobenzo[f][1,4]oxazepine-8-carboxamide]
100 to 500 nM | O=C(NO)c1ccc2c(c1)OCCN(C(=O)C1CC1)C2 [4-(cyclopropanecarbonyl)-N-hydroxy-2,3,4,5-tetrahydrobenzo[f][1,4]oxazepine-8-carboxamide]
≤ 100 nM | O=C(NO)c1ccc2c(c1)OCCN(C(=O)C1(c3ccc(F)cc3)CC1)C2 [4-(1-(4-fluorophenyl)cyclopropane-1-carbonyl)-N-hydroxy-2,3,4,5-tetrahydrobenzo[f][1,4]oxazepine-8-carboxamide]
≤ 100 nM | O=C(NO)c1ccc2c(c1)OCCN(C(=O)c1ccc(Oc3ccccc3)cc1)C2 [N-hydroxy-4-(4-phenoxybenzoyl)-2,3,4,5-tetrahydrobenzo[f][1,4]oxazepine-8-carboxamide]
≤ 100 nM | O=C(NO)c1ccc2c(c1)OCCN(C(=O)C1(c3cccc(Cl)c3)CC1)C2 [4-(1-(3-chlorophenyl)cyclopropane-1-carbonyl)-N-hydroxy-2,3,4,5-tetrahydrobenzo[f][1,4]oxazepine-8-carboxamide]
100 to 500 nM | O=C(NO)c1ccc2c(c1)OCCN(C(=O)Cc1cc(C(F)(F)F)cc(C(F)(F)F)c1)C2 [4-(2-(3,5-bis(trifluoromethyl)phenyl)acetyl)-N-hydroxy-2,3,4,5-tetrahydrobenzo[f][1,4]oxazepine-8-carboxamide]
> 500 nM | C[C@@H](C(=O)N1CCOc2cc(C(=O)NO)ccc2C1)c1ccccc1 [(R)-N-hydroxy-4-(2-phenylpropanoyl)-2,3,4,5-tetrahydrobenzo[f][1,4]oxazepine-8-carboxamide]
≤ 100 nM | C[C@H]1COc2cc(C(=O)NO)ccc2CN1C(=O)C1CCOCC1 [(S)-N-hydroxy-3-methyl-4-(tetrahydro-2H-pyran-4-carbonyl)-2,3,4,5-tetrahydrobenzo[f][1,4]oxazepine-8-carboxamide]
≤ 100 nM | COC1CCC(C(=O)N2Cc3ccc(C(=O)NO)cc3OC[C@@H]2C)CC1 (single isomer, unassigned)
100 to 500 nM | O=C(NO)c1ccc2c(c1)OCCN(C(=O)C1(c3ccccc3)CCOCC1)C2 [N-hydroxy-4-(4-phenyltetrahydro-2H-pyran-4-carbonyl)-2,3,4,5-tetrahydrobenzo[f][1,4]oxazepine-8-carboxamide]
